{"source": "patent US20180303777A1", "about": "“Hyaluronate Compositions” (Cypress Pharmaceuticals, Inc., priority 2007, published 2018)", "test_system": "eczema", "assay": "Treatment of eczema in a patient", "format": "in vivo, human", "conditions": "topical to the most gravely affected areas, before the composition", "source_text": "A patient with eczema visited a pediatrician. […] The patient was prescribed desoximatasone for topical administration to the most gravely affected areas. […] Subsequently, the pediatrician provided the patient's parent with an amount of the exemplary composition as described in Example 3 in a suitable container-closure system, for daily administration to the patient."}
{"molecule": "C[C@@H]1C[C@H]2[C@@H]3CCC4=CC(=O)C=C[C@]4(C)[C@@]3(F)[C@@H](O)C[C@]2(C)[C@H]1C(=O)CO", "note": "[desoximatasone]", "values": [{"measurement": "results of topical treatment of eczema", "value": "not satisfactory"}]}
